Where two headings read alike, the source gives them in different places.
Tests used:
[1] = test system: human low density lipoproteins (LDLs); assay: protective activity against oxidation of human LDLs induced by copper sulphate (TBARS determination); format: biochemical; conditions: copper sulphate 5 μM, 3 hours at 37° C., read-out: IC50, protection against the oxidation of LDLs
Procedure: The dose-effect relationship of those compounds was compared with that of probucol and a soluble analogue of vitamin E, trolox.
The anti-oxidant activity of the compounds was measured according to the method of Wallin et al. (Analytical Biochemistry, 1993, 208, 10-15).
Human LDLs are incubated for 3 hours at 37° C. in the presence of an oxidising agent, copper sulphate at a concentration of 5 μM, and of the compound to be tested at concentrations ranging from 10^-8 M to 2.5×10^-6 M. A non-oxidised control (LDLs only) and an oxidised control (LDLs plus copper sulphate) are also included in each of the series of tests.
The products of the LDL oxidation reaction are quantified by the colorimetric determination of "thiobarbituric acid reactive substances" (TBARS).
The protective activity of the tested compounds is expressed by the IC50 value, which corresponds to the concentration of product required to inhibit by 50% the oxidation of LDLs observed in the absence of product. The IC50 value was calculated from the dose-response curve.

[2] = test system: plasma lipids (triglycerides, total cholesterol); assay: hypolipaemic activity in vivo in a diet-induced model of combined hyperlipaemia in the hamster; set-up: species or system Golden Syrian hamster; conditions: 200 mg/kg/day per os, 1 week; for change in vivo at 200 mg/kg: Mesocricetus auratus, po, 168 h, hamsters on lipid-rich diet, versus control group, bezafibrate: mean ± sem of five experiments; for hypocholesterolaemic effect compared with bezafibrate (in words) / triglyceride-lowering effectiveness compared with bezafibrate (in words): hamster, bezafibrate 200 mg/kg/day
Procedure: The hypolipaemic activity of certain representative compounds of the invention was evaluated in vivo in a diet-induced model of combined hyperlipaemia in the hamster.
Golden Syrian hamsters are given a diet rich in lipids (standard diet+0.5% cholesterol+10% cocoa oil) for 3 weeks before the beginning of treatment. That diet induces hypercholesterolaemia and hypertriglyceridaemia.
The products are prepared in tragacanth gum and are administered per os by forced gastric feeding for 1 week at a dose of 200 mg/kg/day. Each product is tested on a group of 6 animals. A placebo group (control) and a group of animals treated with a reference product (bezafibrate at a dose of 200 mg/kg/day) are included in each experiment.
At the end of the treatment, the animals are anaesthetised with ether. Blood is removed by abdominal puncture and the triglycerides and total cholesterol in the serums are determined. Five independent experiments were carried out in accordance with that protocol in order to evaluate the hypolipaemic effect of thirteen compounds of this invention.
The results are shown in Table B. The effect of the treatment is expressed as a percentage variation by comparison with the control group, calculated from the means of the absolute values of triglycerides and of total cholesterol. A negative value thus reflects a hypolipaemic effect of the treatment indicated. The values shown for bezafibrate represent the mean values (±sem) of five experiments.

[3] = read-out: Total cholesterol (% variation/control)
[4] = read-out: Triglycerides (% variation/control)

SMILES	IC50 [1] [nM]	change in vivo at 200 mg/kg [2, 3] [%]	change in vivo at 200 mg/kg [2, 4] [%]	hypocholesterolaemic effect compared with bezafibrate (in words) [2]	triglyceride-lowering effectiveness compared with bezafibrate (in words) [2]
Cc1c(C)c2c(c(C)c1O)CCC(C)(C(=O)O)O2 (centres unmarked) [Trolox, trolox, reference compound]	1600	–	–	–	–
Cc1c(C)c2c(c(C)c1O)CCC(C)(C=CCCOc1ccc(OCCCC(C)(C)C(=O)O)cc1)O2 (racemic) [Example 17, R,S-2,2-dimethyl-5-{4-[4-(6-hydroxy-2,5,7,8-tetramethyl-3,4-dihydrobenzopyran-2-yl)but-3-enyloxy]phenoxy}pentanoic acid]	960	–	–	–	–
CC(C)(CCCOc1ccc(CCSc2cc(C(C)(C)C)c(O)c(C(C)(C)C)c2)cc1)C(=O)O [Example 1, 2,2-Dimethyl-5-{4-[2-(3,5-di-tert-butyl-4-hydroxyphenylthio)ethyl]phenoxy}pentanoic acid]	420	–	–	–	–
Cc1c(C)c2c(c(C)c1O)CCC(C)(CCCc1cccc(OCCCC(C)(C)C(=O)O)c1)O2 (racemic) [Example 19, R,S-2,2-dimethyl-5-{3-[3-(6-hydroxy-2,5,7,8-tetramethyl-3,4-dihydrobenzopyran-2-yl)-propyl]phenoxy}pentanoic acid]	680	–	–	–	–
CC(C)(CCCOc1cccc(CCSc2cc(C(C)(C)C)c(O)c(C(C)(C)C)c2)c1)C(=O)O [Example 8, 2,2-dimethyl-5-{3-[2-(3,5-di-tert-butyl-4-hydroxyphenylthio)ethyl]phenoxy}pentanoic acid]	380	-59	-59	–	–
CC(C)(Oc1ccc(CCNC(=O)c2ccc(Cl)cc2)cc1)C(=O)O [Bezafibrate, bezafibrate, reference compound]	–	-48 ± 4	-46 ± 19	–	–
Cc1cc(SCCc2cccc(OCCCC(C)(C)C(=O)O)c2)c(C)c(C)c1O [Example 7, 2,2-dimethyl-5-{3-[2-(4-hydroxy-2,3,5-trimethylphenylthio)ethyl]phenoxy}pentanoic acid]	68	-47	-83	hypocholesterolaemic effect at least as great as bezafibrate	statistically at least as effective as bezafibrate
CC(C)(CCCOc1ccc(CCCSc2cc(C(C)(C)C)c(O)c(C(C)(C)C)c2)cc1)C(=O)O [Example 3, 2,2-dimethyl-5-{4-[3-(3,5-di-tert-butyl-4-hydroxyphenylthio)propyl]phenoxy}pentanoic acid]	530	-77	-87	hypocholesterolaemic effect at least as great as bezafibrate	statistically at least as effective as bezafibrate
CC(C)(Sc1cc(C(C)(C)C)c(O)c(C(C)(C)C)c1)Sc1cc(C(C)(C)C)c(O)c(C(C)(C)C)c1 [Probucol, probucol, reference compound]	5800	–	–	–	–
CC(C)(CCCOc1ccc(CCCOc2cc(C(C)(C)C)c(O)c(C(C)(C)C)c2)cc1)C(=O)O [Example 10, 2,2-dimethyl-5-{4-[3-(3,5-di-tert-butyl-4-hydroxyphenoxy)propyl]phenoxy}pentanoic acid]	240	–	–	–	–
CC(C)(CCCOc1cccc(CCCc2cc(C(C)(C)C)c(O)c(C(C)(C)C)c2)c1)C(=O)O [Example 20, 2,2-dimethyl-5-{3-[3-(4-hydroxy-3,5-di-tert-butylphenyl)propyl]phenoxy}pentanoic acid]	1100	-58	-71	–	–
CC(C)(CCCOc1cccc(CCOc2cc(C(C)(C)C)c(O)c(C(C)(C)C)c2)c1)C(=O)O [Example 13, 2,2-dimethyl-5-{3-[2-(3,5-di-tert-butyl-4-hydroxyphenoxy)ethyl]phenoxy}pentanoic acid]	300	-68	-84	hypocholesterolaemic effect at least as great as bezafibrate	statistically at least as effective as bezafibrate
CC(C)(CCCOc1ccc(CCOc2cc(C(C)(C)C)c(O)c(C(C)(C)C)c2)cc1)C(=O)O [Example 16, 2,2-dimethyl-5-{4-[2-(4-hydroxy-3,5-di-tert-butylphenoxy)ethyl]phenoxy}pentanoic acid]	770	-66	-54	–	–
CC(C)(CCCOc1ccc(CCSc2cc(C(C)(C)C)c(O)c(C(C)(C)C)c2)cc1)C(=O)O [Example 2, 2,2-dimethyl-5-{4-[2-(3,5-di-tert-butyl-4-hydroxyphenylthio)ethyl]phenoxy}pentanoic acid]	210	-52	-82	hypocholesterolaemic effect at least as great as bezafibrate	statistically at least as effective as bezafibrate

Further lines, with some results ahead:

IC50 [1] [nM]	SMILES	change in vivo at 200 mg/kg [2, 3] [%]	change in vivo at 200 mg/kg [2, 4] [%]	hypocholesterolaemic effect compared with bezafibrate (in words) [2]	triglyceride-lowering effectiveness compared with bezafibrate (in words) [2]
640	CC(C)(CCCOc1ccc(OCCCOc2cc(C(C)(C)C)c(O)c(C(C)(C)C)c2)cc1)C(=O)O [Example 12, 2,2-dimethyl-5-{4-[3-(3,5-di-tert-butyl-4-hydroxyphenoxy)propyloxy]phenoxy}pentanoic acid]	-63	-84	hypocholesterolaemic effect at least as great as bezafibrate	statistically at least as effective as bezafibrate
460	Cc1cc(SCCCc2ccc(OCCCC(C)(C)C(=O)O)cc2)c(C)c(C)c1O [Example 4, 2,2-dimethyl-5-{4-[3-(4-hydroxy-2,3,5-trimethylphenylthio)propyl]phenoxy}pentanoic acid]	-48	-77	–	–
97	Cc1cc(OCCCc2ccc(OCCCC(C)(C)C(=O)O)cc2)c(C)c(C)c1O [Example 15, 2,2-dimethyl-5-{4-[3-(4-hydroxy-2,3,5-trimethylphenoxy)propyl]phenoxy}pentanoic acid]	-77	-93	hypocholesterolaemic effect at least as great as bezafibrate	statistically at least as effective as bezafibrate
88	Cc1cc(OCCc2cccc(OCCCC(C)(C)C(=O)O)c2)c(C)c(C)c1O [Example 14, 2,2-dimethyl-5-{3-[2-(4-hydroxy-2,3,5-trimethylphenoxy)ethyl]phenoxy}pentanoic acid]	–	–	–	–
550	CC(C)(CCCOc1ccc(OCCCSc2cc(C(C)(C)C)c(O)c(C(C)(C)C)c2)cc1)C(=O)O [Example 5, 2,2-dimethyl-5-{4-[3-(3,5-di-tert-butyl-4-hydroxyphenylthio)propyloxy]phenoxy}pentanoic acid]	–	–	–	–
190	Cc1cc(OCCCOc2ccc(OCCCC(C)(C)C(=O)O)cc2)c(C)c(C)c1O [Example 11, 2,2-dimethyl-5-{4-[3-(4-hydroxy-2,3,5-trimethylphenoxy)propyloxy]phenoxy}pentanoic acid]	-55	-60	–	–
720	Cc1c(C)c2c(c(C)c1O)CCC(C)(CCCCOc1ccc(OCCCC(C)(C)C(=O)O)cc1)O2 (racemic) [Example 18, R,S -2,2-dimethyl-5-{4-[4-(6-hydroxy-2,5,7,8-tetramethyl-3,4-dihydrobenzopyran-2-yl)butyloxy]phenoxy}pentanoic acid]	-61	-79	–	–
200	Cc1cc(OCCc2ccc(OCCCC(C)(C)C(=O)O)cc2)c(C)c(C)c1O [Example 9, 2,2-dimethyl-5-{4-[2-(4-hydroxy-2,3,5-trimethylphenoxy)ethyl]phenoxy}pentanoic acid]	–	–	–	–
170	Cc1cc(SCCCOc2ccc(OCCCC(C)(C)C(=O)O)cc2)c(C)c(C)c1O [Example 6, 2,2-dimethyl-5-{4-[3-(4-hydroxy-2,3,5-trimethylphenylthio)propyloxy]phenoxy}pentanoic acid]	-39	-59	–	–

— US5734077A, “Substituted 2,2-dimethyl-omega-phenoxyalkanoic acids and esters” (Adir ET Compagnie, priority 1995, dated 1998)
